{
  "source": "patent EP4755403A1",
  "about": "“ANTI-PSMA ANTIBODY-DRUG CONJUGATE AND PHARMACEUTICAL USE THEREOF” (Jiangsu Hengrui Pharmaceuticals Co., Ltd., priority 2023, dated 2025)",
  "assay_in_all_cases": "Cell killing activity of ADC molecules (CellTiter-Glo)",
  "format_in_all_cases": "cell-based, human",
  "conditions_in_all_cases": "5 days",
  "key": {"PC-3 cells": {"system": "PC-3 cells", "description": "(§1) LNCaP (ATCC, CRL-1740), 22RV1 (ATCC, CRL-2505), and PC-3 (ATCC, CRL-1435) cells were digested with trypsin, neutralized with a fresh medium, centrifuged at 1000 rpm, and then resuspended in a medium. After the cells were counted, the density of the cell suspensions was adjusted to […], and the cells were plated onto a 96-well plate. The adjusted cell suspension (135 µL) was added to each well with […]. Only the middle 60 wells were used for plating, and six wells in the twelfth column were taken as pure medium controls without cells. An equal volume of PBS was added to the other wells. The cells were incubated at 37 °C with 5% CO2 for 16 h.\n(§2) Then 20 µL of the dilution was added to the cell plate described above, and the plate was incubated in an incubator (37 °C, 5% CO2) for 5 days. […] Subsequently, 9-point serial dilutions at a 1:3 ratio were performed with PBS. Then 1 µL of the dilution was added to 20 µL of RPMI-1640, and the mixture was transferred to a 96-well cell culture plate. The plate was incubated in an incubator (37 °C, 5% CO2) for 5 days. In the 96-well cell culture plate, 80 µL of the CellTiter-Glo reagent was added to each well, and the plate was left to stand in the dark at room temperature for 10-15 min. The chemiluminescence signal values were read on Victor3, and the data were processed using GraphPad software.\n(§3) On the fifth day, the culture plate was taken out and allowed to return to room temperature. The CellTiter-Glo assay solution (75 µL) was added to each well, and the plate was left to stand in the dark at room temperature for 10 min. A Backseal membrane was attached to the bottom of the cell culture plate. The plate was placed on a microplate reader Victor 3, and luminescence signal values were read. Curve fitting was performed according to the log values of concentrations of the test compounds to the corresponding signal values using Graphpad Prism software, and IC50 values were calculated. The maximum value of killing was defined as the maximum killing rate (Imax) of the compound. The killing rate was calculated as follows: [formula]"}, "LNCaP cells": {"system": "LNCaP cells", "description": "as §1, §2, §3"}, "22RV1 cells": {"system": "22RV1 cells", "description": "as §1, §2, §3"}, "[1]": {"conditions": "Homo sapiens, 120 h, read-out: IC50 (killing effect)"}},
  "data": [
    {"smiles": "CC[C@@]1(O)C(=O)OCc2c1cc1n(c2=O)Cc2c-1nc1cc(F)c(C)c3c1c2[C@@H](NC(=O)[C@H](O)C1CC1)CC3", "note": "[Compound 2-B]", "values": [
      {"measurement": "Imax (maximum killing rate)", "setting": "PC-3 cells", "value": 92.78, "unit": "%"},
      {"measurement": "IC50", "setting": "PC-3 cells; [1]", "value": 1.54, "unit": "nM"},
      {"measurement": "Imax (maximum killing rate)", "setting": "LNCaP cells", "value": 97.13, "unit": "%"},
      {"measurement": "IC50", "setting": "LNCaP cells; [1]", "value": 0.535, "unit": "nM"},
      {"measurement": "Imax (maximum killing rate)", "setting": "22RV1 cells", "value": 98.07, "unit": "%"},
      {"measurement": "IC50", "setting": "22RV1 cells; [1]", "value": 0.534, "unit": "nM"}
    ]}
  ]
}
